Reference: ChEMBL document CHEMBL1135096, “4-Aryl/cycloalkyl-5-phenyloxazole derivatives as selective COX-2 inhibitors” (Bioorg Med Chem Lett, 2002)

How the values were obtained:
[1] = molecular target: T1, Prostaglandin G/H synthase 2 (Homo sapiens, UniProt P35354)
T1 sequence (P35354 whole entry): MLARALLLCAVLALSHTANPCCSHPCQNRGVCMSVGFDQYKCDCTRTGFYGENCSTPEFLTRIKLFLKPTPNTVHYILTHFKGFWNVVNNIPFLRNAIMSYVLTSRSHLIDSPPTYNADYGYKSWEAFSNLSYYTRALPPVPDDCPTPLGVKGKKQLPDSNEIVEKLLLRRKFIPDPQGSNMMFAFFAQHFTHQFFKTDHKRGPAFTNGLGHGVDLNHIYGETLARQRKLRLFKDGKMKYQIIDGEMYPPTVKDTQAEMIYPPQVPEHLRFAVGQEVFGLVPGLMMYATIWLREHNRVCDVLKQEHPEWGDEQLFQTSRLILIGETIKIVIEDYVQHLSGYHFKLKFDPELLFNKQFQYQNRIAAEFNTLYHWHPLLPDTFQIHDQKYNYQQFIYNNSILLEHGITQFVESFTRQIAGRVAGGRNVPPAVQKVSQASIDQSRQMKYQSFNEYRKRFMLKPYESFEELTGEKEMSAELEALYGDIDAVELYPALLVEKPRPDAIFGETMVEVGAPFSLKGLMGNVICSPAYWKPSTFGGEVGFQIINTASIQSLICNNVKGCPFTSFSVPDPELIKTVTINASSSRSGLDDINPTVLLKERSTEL
Description: In vitro inhibitory activity towards human recombinant Prostaglandin G/H synthase 2 enzyme

[2] = molecular target: Prostaglandin G/H synthase 1 (Homo sapiens, UniProt P23219)
Prostaglandin G/H synthase 1, sequence (P23219 whole entry): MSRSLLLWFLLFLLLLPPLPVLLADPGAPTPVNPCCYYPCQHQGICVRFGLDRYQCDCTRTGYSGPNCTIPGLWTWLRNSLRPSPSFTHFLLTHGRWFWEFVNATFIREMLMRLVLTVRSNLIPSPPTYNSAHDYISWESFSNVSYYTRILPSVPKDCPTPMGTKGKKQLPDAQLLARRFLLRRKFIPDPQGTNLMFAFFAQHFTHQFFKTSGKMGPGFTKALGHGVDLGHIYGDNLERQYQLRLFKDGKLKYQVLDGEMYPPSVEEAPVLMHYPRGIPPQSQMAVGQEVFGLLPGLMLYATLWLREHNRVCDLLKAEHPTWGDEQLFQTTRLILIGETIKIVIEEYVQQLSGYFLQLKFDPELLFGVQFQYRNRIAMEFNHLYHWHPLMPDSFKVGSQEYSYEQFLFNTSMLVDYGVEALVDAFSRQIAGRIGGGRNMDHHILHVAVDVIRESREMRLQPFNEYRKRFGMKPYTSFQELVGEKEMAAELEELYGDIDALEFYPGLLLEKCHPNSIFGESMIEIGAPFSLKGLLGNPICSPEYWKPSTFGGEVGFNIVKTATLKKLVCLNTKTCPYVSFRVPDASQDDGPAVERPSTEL
Description: In vitro inhibitory activity towards human platelet recombinant Prostaglandin G/H synthase 1

Row | Structure (SMILES) | IC50 [1] [µM] | IC50 [2] [µM]
1 | CCc1nc(C2CCCCC2)c(-c2ccc(S(C)(=O)=O)cc2)o1 | 0.27 | 60
2 | Cc1nc(C2CCCCC2)c(-c2ccc(S(N)(=O)=O)cc2)o1 | – | 47.5
3 | Cc1nc(-c2ccc(F)cc2)c(-c2ccc(S(C)(=O)=O)cc2)o1 | 0.07 | 42
4 | Cc1nc(-c2ccc(F)cc2)c(-c2ccc(S(N)(=O)=O)cc2)o1 | 0.024 | 4.7
5 | Cc1nc(C2CCCC2)c(-c2ccc(S(C)(=O)=O)cc2)o1 | 18 | > 100
6 | CS(=O)(=O)c1ccc(-c2oc(-c3ccccc3)nc2C2CCCCC2)cc1 | > 100 | > 100
7 | Cc1nc(-c2ccc(S(C)(=O)=O)cc2)c(-c2ccc(F)cc2)o1 | 2.1 | > 100
8 | Cc1nc(C2CCCCC2)c(-c2ccc(S(C)(=O)=O)cc2)o1 | – | > 100
9 | Cc1nc(-c2ccccc2)c(-c2ccc(S(C)(=O)=O)cc2)o1 | 0.09 | > 100
10 | Cc1nc(-c2ccc(S(C)(=O)=O)cc2)c(-c2ccc(Cl)s2)o1 | – | 93
11 | Cc1nc(C2CCCCCC2)c(-c2ccc(S(C)(=O)=O)cc2)o1 | – | > 100
12 | CCS(=O)(=O)c1ccc(-c2oc(C)nc2-c2ccc(F)cc2)cc1 | 38 | > 100
13 | CNS(=O)(=O)c1ccc(-c2oc(C)nc2C2CCCCC2)cc1 | 3.1 | > 100
14 | CCc1ccc(-c2nc(C)oc2-c2ccc(S(C)(=O)=O)cc2)s1 | 0.14 | > 100
